The values below are quoted from earlier work in publication PMC4549746, “Zearalenone in the Intestinal Tissues of Immature Gilts Exposed per os to Mycotoxins” (Toxins, 2015).

Details of the data set: method as in PMID 15972077. The conditions noted are these: animal feed naturally contaminated with ZEN and α-ZEL; cited from earlier work.

In the case of `C[C@H]1CCCC(=O)CCC/C=C/c2cc(O)cc(O)c2C(=O)O1` [ZEN, zearalenone], the “absorbed from the duodenum” value was 65%.
